# In ChEMBL document CHEMBL1154774, “Neglected tropical diseases: multi-target-directed ligands in the search for novel lead candidates against Trypanosoma and Leishmania” (J Med Chem, 2009):
# pIC50: −log10 of the molar value.
# What was measured:
# [1] = Selectivity index, ratio of cytotoxicity against mammalian cells to IC50 for Trypanosoma brucei rhodesiense; type: toxicity, cell-based; settings: read-out: Selectivity Index
# [2] = Selectivity index, ratio of cytotoxicity against mammalian cells to IC50 for Trypanosoma cruzi Tulahuen 2; type: toxicity, cell-based; settings: read-out: Selectivity Index
# Trypanosoma cruzi = test: Antitrypanosomal activity against Trypanosoma cruzi Tulahuen 2; type: functional, organism-based
# Trypanothione reductase = Trypanothione reductase (Trypanosoma cruzi, UniProt P28593); test: Inhibition of Trypanosoma cruzi trypanothione reductase
# Trypanothione reductase, sequence (P28593 whole entry): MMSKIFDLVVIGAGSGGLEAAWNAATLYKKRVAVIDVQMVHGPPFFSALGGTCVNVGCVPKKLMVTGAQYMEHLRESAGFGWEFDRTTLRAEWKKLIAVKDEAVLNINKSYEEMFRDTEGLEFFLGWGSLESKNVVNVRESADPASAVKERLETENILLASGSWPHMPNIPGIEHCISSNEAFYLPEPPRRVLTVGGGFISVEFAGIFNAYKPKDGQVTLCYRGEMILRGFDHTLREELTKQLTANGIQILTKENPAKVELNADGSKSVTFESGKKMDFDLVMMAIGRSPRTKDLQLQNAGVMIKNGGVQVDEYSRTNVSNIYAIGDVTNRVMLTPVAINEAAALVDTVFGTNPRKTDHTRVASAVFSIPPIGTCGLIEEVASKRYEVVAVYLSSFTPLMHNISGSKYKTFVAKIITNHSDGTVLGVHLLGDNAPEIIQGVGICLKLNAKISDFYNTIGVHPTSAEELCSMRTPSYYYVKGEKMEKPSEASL
# Leishmania mexicana = test: Leishmanistatic activity against Leishmania mexicana; type: functional
compound,measurement,setting,value
O=C1C=C(Oc2ccccc2)C(=O)c2ccccc21,selectivity ratio,[1],74
NC(=S)N/N=C/c1ccc(OCc2ccc3no[n+]([O-])c3c2)cc1,selectivity ratio,[2],27
same,pIC50,Trypanosoma cruzi,4.82
same,pIC50,Trypanothione reductase,4.37
C/C(=N/Nc1ccccn1)[C@H]1CC[C@H]2[C@@H]3CC[C@H]4C[C@@H](O)CC[C@]4(C)[C@H]3CC[C@]12C,growth inhibition (GI),Leishmania mexicana,39%
